Data from patent US20120041030A1, “PYRIDINE THIO DERIVATIVE, AND PHARMACEUTICAL COMPOSITION WHICH CONTAINS SAME AND HAS ANTI-HELICOBACTER PYLORI ACTION” (priority 2009, published 2012).
≈ marks a conversion by molar mass, not a printed value. Read-outs that look alike come from different tables or passages of the source.

How the values were obtained:
Assay type in all cases: cell-based
[1] = test system: Helicobacter pylori (ATCC 43504); experiment: Antibacterial test (MIC) against Helicobacter pylori; conditions: for minimum inhibitory concentration (MIC): Helicobacter pylori ATCC 43504; for MIC: Helicobacter pylori
Method: (§1) ATCC43504 which was a standard bacterial strain was used as Helicobacter pylori (H. pylori) to perform the test in vitro in a Columbia agar medium. The bacteria were cultured at 37° C. and a pH of 7.0 for three days. The minimum inhibitory concentration (MIC, μg/ml) was found on the fourth day. Each sample was dissolved in 1% DMSO to use. […] As bacteria for comparison, Gram negative bacteria, for example, E. coli (ATCC 10536 ATCC 25922), Klebsiella pneumonia (ATCC 10031), Proteus vulgaris (ATCC 13315), Pseudomonas aeruginosa (ATCC 9027) and Salmonella typhimurium (ATCC 13311) were used and Gram positive bacteria, for example, Staphylococcus aureus, MRSA (ATCC 33591), Staphylococcus epidermidis (ATCC 12228), Streptococcus pneumonia (ATCC 6301), Mycobacterium ranae (ATCC 110) and Enterococcus faecalis (VRE, ATCC 51575) were used.
(§2) The values in each table show minimum inhibitory concentrations (MIC, μg/ml).

[2] = test system: Pseudomonas aeruginosa (ATCC 9027); experiment: Antibacterial test (MIC), comparison bacteria; conditions: for minimum inhibitory concentration (MIC): Gram negative; for MIC: ATCC9027, Gram negative, read-out: minimum inhibitory concentration (MIC)
Method: as §1, §2

[3] = test system: Salmonella typhimurium (ATCC 13311); experiment: Antibacterial test (MIC), comparison bacteria; conditions: Gram negative; for MIC: Salmonella enterica, read-out: minimum inhibitory concentration (MIC)
Method: as §1, §2

[4] = test system: Staphylococcus aureus (MRSA, ATCC 33591); experiment: Antibacterial test (MIC), comparison bacteria; conditions: Gram positive; for MIC: read-out: minimum inhibitory concentration (MIC)
Method: as §1, §2

[5] = test system: Enterococcus faecalis (VRE, ATCC 51575); experiment: Antibacterial test (MIC), comparison bacteria; conditions: Gram positive; for MIC: read-out: minimum inhibitory concentration (MIC)
Method: as §1, §2

[6] = test system: Streptococcus pneumonia (ATCC 6301); experiment: Antibacterial test (MIC), comparison bacteria; conditions: for minimum inhibitory concentration (MIC): Gram positive; for MIC: Streptococcus pneumoniae, ATCC6301, Gram positive, read-out: minimum inhibitory concentration (MIC)
Method: as §1, §2

[7] = test system: Escherichia coli (ATCC 10536); experiment: Antibacterial test (MIC), comparison bacteria; conditions: for MIC: ATCC10536, Gram negative, read-out: minimum inhibitory concentration (MIC); for minimum inhibitory concentration (MIC): Gram negative
Method: as §1, §2

[8] = test system: Proteus vulgaris (ATCC 13315); experiment: Antibacterial test (MIC), comparison bacteria; conditions: for MIC: ATCC13315, Gram negative, read-out: minimum inhibitory concentration (MIC); for minimum inhibitory concentration (MIC): Gram negative
Method: as §1, §2

[9] = test system: Escherichia coli (ATCC 25922); experiment: Antibacterial test (MIC), comparison bacteria; conditions: for MIC: ATCC25922, Gram negative, read-out: minimum inhibitory concentration (MIC); for minimum inhibitory concentration (MIC): Gram negative
Method: as §1, §2

[10] = test system: Staphylococcus epidermidis (ATCC 12228); experiment: Antibacterial test (MIC), comparison bacteria; conditions: for MIC: ATCC12228, Gram positive, read-out: minimum inhibitory concentration (MIC); for minimum inhibitory concentration (MIC): Gram positive
Method: as §1, §2

[11] = test system: Klebsiella pneumonia (ATCC 10031); experiment: Antibacterial test (MIC), comparison bacteria; conditions: for MIC: Klebsiella pneumoniae, ATCC10031, Gram negative, read-out: minimum inhibitory concentration (MIC); for minimum inhibitory concentration (MIC): Gram negative
Method: as §1, §2

[12] = test system: Mycobacterium ranae (ATCC 110); experiment: Antibacterial test (MIC), comparison bacteria; conditions: for MIC: ATCC110, Gram positive, read-out: minimum inhibitory concentration (MIC); for minimum inhibitory concentration (MIC): Gram positive
Method: as §1, §2

[13] = Columbia agar medium, 37° C., pH 7.0, cultured three days, MIC found on the fourth day
[14] = ATCC43504, 72 h, pH 7, Helicobacter pylori ATCC 43504, Columbia agar medium, 37° C., pH 7.0, cultured three days, MIC found on the fourth day, read-out: minimum inhibitory concentration (MIC)

Row | SMILES | minimum inhibitory concentration (MIC) [1, 13] [µg/mL] | minimum inhibitory concentration (MIC) [2] | minimum inhibitory concentration (MIC) [3] | minimum inhibitory concentration (MIC) [4] | minimum inhibitory concentration (MIC) [5] | minimum inhibitory concentration (MIC) [6] | MIC [1, 14] [µg/mL] | MIC [2] [µg/mL] | MIC [3] [µg/mL] | MIC [4] [µg/mL] | MIC [7] [µg/mL] | MIC [8] [µg/mL] | MIC [9] [µg/mL] | MIC [5] [µg/mL] | MIC [6] [µg/mL] | MIC [10] [µg/mL] | MIC [11] [µg/mL] | MIC [12] [µg/mL] | minimum inhibitory concentration (MIC) [7] | minimum inhibitory concentration (MIC) [8] | other results
1 | CC1(C)S[C@@H]2[C@H](NC(=O)[C@H](N)c3ccc(O)cc3)C(=O)N2[C@H]1C(=O)O [AMPC, Amoxicillin, reference compound] | 0.06 (≈ 0.164 µM) | 100< μg/ml | 0.3 µg/mL (≈ 0.821 µM) | 0.1 µg/mL (≈ 0.274 µM) | 0.3 µg/mL (≈ 0.821 µM) | 0.01 µg/mL (≈ 0.0274 µM) |  |  |  |  |  |  |  |  |  |  |  |  |  |  | 
2 | CC[C@H]1OC(=O)[C@H](C)[C@@H](O[C@H]2C[C@@](C)(OC)[C@@H](O)[C@H](C)O2)[C@H](C)[C@@H](O[C@@H]2O[C@H](C)C[C@H](N(C)C)[C@H]2O)[C@](C)(OC)C[C@@H](C)C(=O)[C@H](C)[C@@H](O)[C@]1(C)O [CAM, Clarithromycin, reference compound] |  |  |  |  |  |  | 0.1 (≈ 0.134 µM) | > 100 | 25 (≈ 33.4 µM) | 0.1 (≈ 0.134 µM) | 50 (≈ 66.8 µM) | 100 (≈ 134 µM) | 50 (≈ 66.8 µM) | 0.1 (≈ 0.134 µM) | 0.02 (≈ 0.0267 µM) |  |  |  |  |  | 
3 | COCCCCSc1ccnc(SCc2nc3ccccc3[nH]2)c1C.Cl [Example 1, 2-[[[4-[(4-methoxy-butyl]thio]-3-methyl-2-pyridyl]thio]methyl]-1H-benzimidazole hydrochloride] |  |  |  |  |  |  | ≤ 0.03 | > 100 | > 100 | > 100 | > 100 | > 100 | > 100 | > 100 | > 100 | > 100 | > 100 | > 100 |  |  | 
4 | Cc1c(SCCCCCCCCO)ccnc1SCc1nc2ccccc2[nH]1 [Example 2, 2-[[[4-[(8-hydroxy-octyl)thio]-3-methyl-2-pyridyl]thio]methyl]-1H-benzimidazole] |  |  |  |  |  |  |  | > 100 | > 100 | > 100 | > 100 | > 100 | > 100 | > 100 | > 100 | > 100 | > 100 | > 100 |  |  | MIC ([1]; summary of Tables 2 and 3): 0.003 µg
5 | COCCCCCCCCSc1ccnc(SCc2nc3ccccc3[nH]2)c1C.Cl [Example 3, 2-[[[4-[(8-methoxy-1-octyl]thio]-3-methyl-2-pyridyl]thio]methyl]-1H-benzimidazole hydrochloride] |  |  |  |  |  |  | 0.1 | > 100 | > 100 | > 100 | > 100 | > 100 | > 100 | > 100 | > 100 | > 100 | > 100 | > 100 |  |  | 
6 | CCCOc1ccnc(SCc2nc3ccccc3[nH]2)c1C.Cl [Example 4, 2-[[(4-n-propoxy-3-methyl-2-pyridyl)thio]-methyl]-1H-benzimidazole hydrochloride] |  |  |  |  |  |  | 0.3 | > 100 | > 100 | > 100 | > 100 | > 100 | > 100 | > 100 | > 100 | > 100 | > 100 | > 100 |  |  | 
7 | CSc1ccnc(SCc2nc3ccccc3[nH]2)c1C.Cl [Example 5, 2-[[(4-thiomethyl-3-methyl-2-pyridyl)thio]-methyl]-1H-benzimidazole hydrochloride] | 3.0 | 100< μg/ml | 100< μg/ml | 100< μg/ml | 100< μg/ml | 100< μg/ml |  |  |  |  |  |  |  |  |  |  |  |  | 100< μg/ml | 100< μg/ml | minimum inhibitory concentration (MIC) [10]: 100< μg/ml; minimum inhibitory concentration (MIC) [9]: 100< μg/ml; minimum inhibitory concentration (MIC) [11]: 100< μg/ml; minimum inhibitory concentration (MIC) [12]: 100< μg/ml
8 | CCCSc1ccnc(SCc2nc3ccccc3[nH]2)c1C.Cl [Example 6, 2-[[(4-thiopropyl-3-methyl-2-pyridyl)thio]-methyl]-1H-benzimidazole hydrochloride] | 0.3 | 100< μg/ml | 100< μg/ml | 100< μg/ml | 100< μg/ml | 100< μg/ml |  |  |  |  |  |  |  |  |  |  |  |  | 100< μg/ml | 100< μg/ml | minimum inhibitory concentration (MIC) [10]: 100< μg/ml; minimum inhibitory concentration (MIC) [9]: 100< μg/ml; minimum inhibitory concentration (MIC) [11]: 100< μg/ml; minimum inhibitory concentration (MIC) [12]: 100< μg/ml
9 | CCCCCSc1ccnc(SCc2nc3ccccc3[nH]2)c1C [Example 7, 2-[[(4-thiopentyl-3-methyl-2-pyridyl)thio]-methyl]-1H-benzimidazole] | 0.3 (≈ 0.839 µM) | 100< μg/ml | 100< μg/ml | 100< μg/ml | 100< μg/ml | 100< μg/ml |  |  |  |  |  |  |  |  |  |  |  |  | 100< μg/ml | 100< μg/ml | minimum inhibitory concentration (MIC) [10]: 100< μg/ml; minimum inhibitory concentration (MIC) [9]: 100< μg/ml; minimum inhibitory concentration (MIC) [11]: 100< μg/ml; minimum inhibitory concentration (MIC) [12]: 100< μg/ml
10 | Cc1c(SCCOCCOCC(F)(F)F)ccnc1SCc1nc2ccccc2[nH]1.Cl [Example 8] | 0.1 | 100< μg/ml | 100< μg/ml | 100< μg/ml | 100< μg/ml | 100< μg/ml |  |  |  |  |  |  |  |  |  |  |  |  | 100< μg/ml | 100< μg/ml | minimum inhibitory concentration (MIC) [10]: 100< μg/ml; minimum inhibitory concentration (MIC) [9]: 100< μg/ml; minimum inhibitory concentration (MIC) [11]: 100< μg/ml; minimum inhibitory concentration (MIC) [12]: 100< μg/ml
11 | Cc1c(OCCOCCOCC(F)(F)F)ccnc1SCc1nc2ccccc2[nH]1.Cl [Example 9] | 0.3 | 100< μg/ml | 100< μg/ml | 100< μg/ml | 100< μg/ml | 100< μg/ml |  |  |  |  |  |  |  |  |  |  |  |  | 100< μg/ml | 100< μg/ml | minimum inhibitory concentration (MIC) [10]: 100< μg/ml; minimum inhibitory concentration (MIC) [9]: 100< μg/ml; minimum inhibitory concentration (MIC) [11]: 100< μg/ml; minimum inhibitory concentration (MIC) [12]: 100< μg/ml
12 | CCCCCOc1ccnc(SCc2nc3ccccc3[nH]2)c1C.Cl [Example 10, 2-[[(4-pentyloxy-3-methyl-2-pyridyl)thio]-methyl]-1H-benzimidazole hydrochloride] |  |  |  |  |  |  | 0.1 | > 100 | > 100 | > 100 | > 100 | > 100 | > 100 | > 100 | > 100 | > 100 | > 100 | > 100 |  |  | 
13 | COCCCCCCCCOc1ccnc(SCc2nc3ccccc3[nH]2)c1C.Cl [Example 14, 2-[[[4-(8-methoxy-1-octyloxy]-3-methyl-2-pyridyl]thio]-methyl]-1H-benzimidazole hydrochloride] |  |  |  |  |  |  |  | > 100 | > 100 | > 100 | > 100 | > 100 | > 100 | > 100 | > 100 | > 100 | > 100 | > 100 |  |  | 
